From PubChem BioAssay (NCI)
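Compound exposure: 48 hours, 5 concentrations, 96-well plates. At the GI50, growth is halved. At the TGI there is no net growth.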

How the values were obtained:
Assay in all cases: NCI-60 cell line screen, 48 h
[1] = tested on: RXF 393 renal
[2] = tested on: KM12 colon
[3] = tested on: HL-60(TB) leukemia
[4] = tested on: IGROV1 ovarian
[5] = tested on: RPMI-8226 leukemia
[6] = tested on: T-47D breast
[7] = tested on: HOP-62 NSCLC
[8] = tested on: 786-0 renal
[9] = tested on: OVCAR-3 ovarian
[10] = tested on: NCI-H460 lung

COc1ccc2c(c1)O/C(=C\c1ccc([N+](=O)[O-])o1)C2=O
GI50 [1]: 1.47 µM
TGI [1]: 2.99 µM
GI50 [2]: 1.37 µM
TGI [2]: 3.42 µM
GI50 [3]: 1.8 µM
TGI [3]: 5.69 µM
GI50 [4]: 1.35 µM
TGI [4]: 7.3 µM
GI50 [5]: 0.367 µM
TGI [5]: 2.33 µM
GI50 [6]: 1.4 µM
TGI [6]: 8.83 µM
GI50 [7]: 2.05 µM
TGI [7]: 6.56 µM
GI50 [8]: 1.99 µM
TGI [8]: 4.83 µM
GI50 [9]: 1.19 µM
TGI [9]: 2.53 µM
GI50 [10]: 0.598 µM
TGI [10]: 3.89 µM

CCN(CC)c1ccc(CNc2cc(C)nc3ccc(OC)cc23)cc1
GI50 [1]: 2.02 µM
TGI [1]: 3.87 µM
GI50 [2]: 3.1 µM
TGI [2]: 11.6 µM
GI50 [3]: 1.6 µM
TGI [3]: 4.23 µM
GI50 [4]: 4.05 µM
TGI [4]: 19.2 µM
GI50 [5]: 1.71 µM
TGI [5]: 4.2 µM
GI50 [6]: 1.96 µM
TGI [6]: 4.61 µM
GI50 [7]: 7.24 µM
TGI [7]: 21 µM
GI50 [8]: 2.01 µM
TGI [8]: 4.29 µM
GI50 [9]: 3.12 µM
TGI [9]: 12.8 µM
GI50 [10]: 1.97 µM
TGI [10]: 4.33 µM

CC[C@]12C=CCN3CC[C@@]4(c5ccc(OC)cc5N(C)[C@H]4[C@@](O)(C(=O)OC)[C@@H]1OC(=O)CCCC[P+](c1ccccc1)(c1ccccc1)c1ccccc1)[C@@H]32
GI50 [1]: 0.635 µM
TGI [1]: 2.72 µM
GI50 [2]: 0.44 µM
TGI [2]: 1.85 µM
GI50 [3]: 0.34 µM
TGI [3]: 1.15 µM
GI50 [4]: 0.486 µM
TGI [4]: 1.98 µM
GI50 [5]: 0.332 µM
TGI [5]: 2.11 µM
GI50 [6]: 0.396 µM
TGI [6]: 12.7 µM
GI50 [7]: 2.94 µM
TGI [7]: 13.7 µM
GI50 [8]: 2.33 µM
TGI [8]: 6.74 µM
GI50 [9]: 0.41 µM
TGI [9]: 2.23 µM
GI50 [10]: 1.7 µM
TGI [10]: 11.6 µM

COC1=CC(=O)c2c(O)c3c(c(O)c2C1=O)OC1(Oc2c(cc4cc(C)oc(=O)c4c2O)CC1O)C3O (stereo unspecified)
TGI [2]: > 100 µM
TGI [3]: > 100 µM
TGI [4]: 66.5 µM
TGI [5]: > 100 µM
TGI [6]: > 100 µM
TGI [7]: > 100 µM
TGI [8]: > 100 µM
TGI [9]: > 100 µM
TGI [10]: 67.8 µM

CCCCCCCCCCCCCCCCSS(C)(=O)=O
TGI [1]: 10.9 µM
TGI [2]: > 100 µM
TGI [3]: 11.6 µM
TGI [4]: > 61.3 µM
TGI [5]: 14.1 µM
TGI [6]: 24.1 µM
TGI [7]: > 100 µM
TGI [8]: 27 µM
TGI [9]: 31.2 µM
TGI [10]: > 75.2 µM

COc1ccccc1CN=C1NC(=O)/C(=C/c2ccc3ncccc3c2)S1
GI50 [1]: 8.75 µM
TGI [1]: > 25 µM
GI50 [2]: 6.18 µM
TGI [2]: > 16.9 µM
GI50 [3]: 10.3 µM
TGI [3]: > 25 µM
GI50 [4]: 6.56 µM
TGI [4]: > 19.4 µM
GI50 [5]: 7.17 µM
TGI [5]: > 25 µM
GI50 [6]: 8.13 µM
TGI [6]: 24.3 µM
GI50 [7]: 7.64 µM
TGI [7]: > 20.2 µM
GI50 [8]: 10.9 µM
TGI [8]: > 25 µM
GI50 [9]: 7.13 µM
TGI [9]: 24.9 µM
GI50 [10]: 6.91 µM
TGI [10]: > 25 µM

O=C1/C(=N/N=C(c2ccccc2)c2ccccc2)c2ccccc2-c2ccccc21
TGI [1]: > 100 µM
TGI [2]: > 100 µM
TGI [3]: > 100 µM
TGI [4]: > 100 µM
TGI [6]: > 100 µM
TGI [7]: > 100 µM
TGI [8]: > 100 µM
TGI [9]: > 100 µM
TGI [10]: > 100 µM

Cc1cc(C)nc(NS(=O)(=O)c2ccc(Nc3nc4nc(NCc5ccccc5)nc(-c5ccc(O)cc5)c4c(=O)[nH]3)cc2)n1
GI50 [2]: 15.5 µM
TGI [2]: > 100 µM
GI50 [3]: 8.41 µM
TGI [3]: 36.2 µM
GI50 [4]: 0.663 µM
TGI [4]: 7.52 µM
GI50 [5]: > 100 µM
TGI [5]: > 100 µM
GI50 [6]: 18.4 µM
TGI [6]: > 100 µM
GI50 [7]: > 100 µM
TGI [7]: > 100 µM
GI50 [8]: 66.7 µM
TGI [8]: > 100 µM
GI50 [9]: 6.18 µM
TGI [9]: 29.5 µM
GI50 [10]: 49.9 µM
TGI [10]: > 100 µM
